Laboratory results: patent US7572923B2, “Indirubin derivatives having anticancer property against human cancer cell line” (Anygen Co., Ltd., priority 2004, dated 2009)

Experiments:
[1] = test system: human cell line (HT 1080); assay: Inhibition of cancer cell line proliferation, HT 1080; assay type: cell-based; conditions: HT-1080, 96 h, read-out: IC50 HT108
Protocol: (§1) For measuring the proliferation inhibition by indirubin compound, the method disclosed in K. Likhitwitayawuid et al. Journal. Nat. Prod. […] Followings are simple description of this method. The cancer cell line is diluted into 5×10^4 cfu/ml. Then, various concentrations of test compounds are added to 96 well microtiter plate containing diluted cell line. After incubating test plate for 3˜4 days at 37° C., the test plate is dried and Tris-base is added. Then, using ELISA plate detector, the absorbance at 515 nm is measured. IC50 is measured by non-linear regression method.

RK3E-ras solid tumor [2] = assay: Tumor suppression in RK3E-ras tumor induced rats; assay type: in vivo; conditions: Sprague Dawley rat; 100 mM injected 5 times in every other day
Protocol: RK3E cell is one of rat kidney cell and it is immortalized by EA1 oncogene. […] Inventors prepares stable RK3E-k-ras cell line by infection of retroviral expression vector to express mutant k-ras of oncogene. Prepared cell line is intramuscularly infected to Sprague Dawley rat to induce tumor. […] Tumor suppression effect by indirubin derivatives 011, 012 and 030 is measured through tumor induced rats.
(§2) 1×10^7 of RK3E-ras cells is injected to Sprague Dawley rat to induce solid tumor for 5 days and experimental groups of animals are employed by size and volume of tumor in these animals. 100 mM of indirubin derivative is injected to experimental group of animals 5 times in every other day.
Tumor is measured by vernier caliper and the volume of tumor is calculated by Carlsso calculation method {V=1/2(a.b^2), a: long axis, b: short axis}.

human cancer cell line = assay: Inhibition of cancer cell line proliferation, overall conclusion; assay type: cell-based; conditions: conclusion from Table 2
Protocol: as §1

RK3E-Ras cells [3] = assay: Cell viability by MTT assay; assay type: cell-based, rat; conditions: 1, 10, 20, 40 μM, 6, 12, 24, 48 hours
Protocol: To measure the influence to cell viability by indirubin derivative, RK3E-Ras cell, 1×10^5/well is seeding on 24 well plate. After incubation of cells for 12˜24 hours, indirubin derivative 011 in various concentration (1 μM, 10 μM, 20 μM, 40 μM) are treated for 6, 12, 24, 48 hours respectively. As control, cells without treating any compound are employed. […] FIG. 1 show the decline of cell viability after treatment of indirubin derivative 011.
According to the same condition in Example 3, other indirubin derivative 012, 030 are treated to measure the influence to cell viability.

[4] = test system: human stomach cancer cell line (SNU-638); assay: Inhibition of cancer cell line proliferation, SNU-638; assay type: cell-based; conditions: 96 h, 3˜4 days incubation, absorbance at 515 nm
Protocol: as §1

[5] = test system: human lung cancer cell line (A549); assay: Inhibition of cancer cell line proliferation, A549; assay type: cell-based; conditions: 96 h, 3˜4 days incubation, absorbance at 515 nm
Protocol: as §1

[6] = test system: leukemia cell line (HL-60); assay: Differentiation inducing effect, NBT reduction method; assay type: cell-based, human; conditions: for % of Differentiation: 3 days
Protocol: For measuring the differentiation inducing effect to acute bone merrow leukemia cell line (HL-60) by indirubin AGM compound, NBT (nitroblue tetrazolium) reduction reaction method is employed. The leukemia cell line is diluted into 2×10^5 cfu/ml. […] Incubated cells are washed with phosphate buffered saline (PBS). Then, they are further incubated in PBS solution containing 0.1% NBT and 200 ng/ml of PMA (phorbol 12-myristate 13-acetate) for 30 minutes at 37° C. Incubated cells are centrifuged and collected cells are washed with PBS solution. Using cell number counter, differentiated cells forming nitroblue formazan among total cells are counted.

[7] = test system: human colon cancer cell line (Col2); assay: Inhibition of cancer cell line proliferation, Col2; assay type: cell-based; conditions: 96 h, 3˜4 days incubation, absorbance at 515 nm
Protocol: as §1

[8] = test system: human leukemia cell line (HL-60); assay: Inhibition of cancer cell line proliferation, HL-60; assay type: cell-based; conditions: HL-60, 96 h, HL60, 3˜4 days incubation, absorbance at 515 nm
Protocol: as §1

RK3E-ras solid tumor [9] = assay: Histological appearance of tumor lesion, H&E stain; assay type: in vivo, Sprague Dawley rat; conditions: rat tumor tissue
Protocol: as §2
To observe histological appearance of tumor lesion after indirubin derivatives 011, 012 and 030 treatment, tumor tissue is immobilized in para-formaldehyde solution and is treated with paraffin. Then, H&E stain is carried out. […] From this experiment, indirubin derivatives of the present invention induce apoptosis of tumor, which results in the suppression of tumor formation in tissue level. FIG. 8 is photography showing the appearance of tumor lesion after treating indirubin derivatives 011, 012 and 030 of present invention.

RK3E-Ras cells [10] = assay: Annexin-V-FLUOS/propidium iodide double staining assay for apoptosis; assay type: cell-based, rat; conditions: 1 μM, 24 hours
Protocol: Annexin-V-FLUOS/propidium iodide double staining assay is a sensitive method for measuring apoptosis in cell level by detecting exposed phosphatidyl serine in apoptotic cell membrane.
RK3E-Ras cell is seeding in 6×10^5 level on cover side. Indirubin derivatives 011, 012 and 030 are treated in 1 μM concentration for 24 hours. As a control, cells without treating any compound are employed. After 24 hours, cells are annexin-V-FLUOS/propidium iodide double stained using annexin-V-FLUOS staining kit. […] It is confirmed that apoptosis of cells treated with indirubin derivatives 011, 012 and 030 is processed.

[11] = test system: human leukemia cell line (HL-60); assay: Differentiation with low concentration 1,25-(OH)2D3 or ATRA, NBT reduction method; assay type: cell-based
Protocol: For measuring the differentiation inducing effect to acute bone merrow leukemia cell line (HL-60) by indirubin AGM compound, NBT (nitroblue tetrazolium) reduction reaction method is employed. The leukemia cell line is diluted into 2×10^5 cfu/ml. After treating 20 μM and 1 μM concentrations of test compounds, test plate is incubated for 3 days at 37° C. in 5% CO2 incubator. Incubated cells are washed with phosphate buffered saline (PBS). Then, they are further incubated in PBS solution containing 0.1% NBT and 200 ng/ml of PMA (phorbol 12-myristate 13-acetate) for 30 minutes at 37° C. Incubated cells are centrifuged and collected cells are washed with PBS solution. Using cell number counter, differentiated cells forming nitroblue formazan among total cells are counted.
Next, we test if AGM compound of present invention can synergically induce the differentiation of acute bone merrow leukemia cell line when it is treated with low concentration of 1,25-dihydroxyvitamin D3[1,25-(OH)2D3] or all-trans retinoic acid (ATRA) known as differentiation inducing agent. […] […] As a positive control, conventional differentiation inducing agent is used.

[12] = test system: human abdominal cavity cancer cell line (HT 1080); assay: Inhibition of cancer cell line proliferation, HT 1080; assay type: cell-based; conditions: HT-1080, 96 h, HT108, 3˜4 days incubation, absorbance at 515 nm
Protocol: as §1

[13] = 1 μM compound with 5 nM of 1,25-(OH)2D3
[14] = 1 μM compound with 50 nM of ATRA

SMILES | IC50 [1] | inhibitor against proliferation of human cancer cell line (human cancer cell line) | IC50 [4] | IC50 [5] | % of Differentiation ([6]; 1 μM compound) | IC50 [7] | IC50 [8] | % of Differentiation, 1,25-(OH)2D3 [11, 13] | % of Differentiation, all-trans RA [11, 14] | % of Differentiation ([6]; 20 μM compound) | other results
O=C1Nc2ccc(F)cc2C1=C1Nc2ccccc2C1=NO [AGM012, 5′-fluoro-1H,1′H-[2,3′] biindolylidene-3,2′-dione 3-oxime] | 3.41 µM | effective inhibitor | 2.06 µM | 13.2 µM | 32.71 ± 1.73% | 64.2 µM | 89.3 µM | 24.29 ± 1.34% | 54.81 ± 1.65% |  | size and volume of tumor (RK3E-ras solid tumor [2]): decrease; cell viability according to increase of compound concentration (RK3E-Ras cells [3]): rapid decline of cell viability; histological appearance of tumor lesion (RK3E-ras solid tumor [9]): necrosis or calcification of tumor is observed; annexin-V green fluorescence staining versus control (RK3E-Ras cells [10]): far more stained by green fluorescence than cells of control group
O=C1Nc2ccc(Cl)cc2C1=C1Nc2ccccc2C1=NO [AGM014, 5′-chloro-1H,1′H-[2,3′] biindolylidene-3,2′-dione 3-oxime] |  | effective inhibitor | 6.22 µM | 12.1 µM | 40.97 ± 1.19% | 16.8 µM | 4.81 µM | 21.72 ± 1.22% | 72.40 ± 3.05% |  | IC50 [12]: 10.8 µM
O=C1Nc2ccc([N+](=O)[O-])cc2C1=C1Nc2ccc(Br)cc2C1=NO [AGM023, 5-bromo-5′-nitro-1H,1′H-[2,3′] biindolylidene-3,2′-dione 3-oxime] |  | effective inhibitor | 12.1 µM | 23.2 µM |  | 44.2 µM | 69.3 µM |  |  |  | IC50 [12]: 4.41 µM; % of Differentiation ([6]; 0.2 μM compound): 18.38 ± 0.27%; cytotoxicity [11]: some cytotoxicity; induction of differentiation with conventional differentiation inducing agent ([11]; 0.2 μM): high induction of differentiation; % of Differentiation, 1,25-(OH)2D3 ([11]; 0.2 μM compound with 5 nM of 1,25-(OH)2D3): 89.76 ± 0.88%; % of Differentiation, all-trans RA ([11]; 0.2 μM compound with 50 nM of ATRA): 90.85 ± 0.36%
O=C1Nc2ccc(Cl)cc2C1=C1Nc2ccccc2C1=O [AGM025, 5′-chloro-1H,1′H-[2,3′] biindolylidene-3,2′-dione] | > 100 µM |  | > 100 µM | > 100 µM | 26.18 ± 0.59% | > 100 µM | > 100 µM | 49.41 ± 0.08% | 48.39 ± 1.48% | 14.40 ± 0.82% | 
O=C1Nc2ccc(I)cc2C1=C1Nc2ccccc2C1=O [AGM026, 5′-iodo-1H,1′H-[2,3′] biindolylidene-3,2′-dione] | > 100 µM |  | > 100 µM | > 100 µM | 29.84 ± 1.12% | > 100 µM | > 100 µM | 44.43 ± 0.09% | 60.33 ± 0.51% | 22.23 ± 0.60% | 
Cc1cc(C)c2c(c1)C(=C1Nc3ccccc3C1=O)C(=O)N2 [AGM027, 5′,7′-dimethyl-1H,1′H-[2,3′] biindolylidene-3,2′-dione] | > 100 µM |  | > 100 µM | > 100 µM | 9.45 ± 0.92% | > 100 µM | > 100 µM | 21.74 ± 1.90% | 43.19 ± 1.73% | 4.75 ± 0.41% | 
Cc1cc(Cl)cc2c1NC(=O)C2=C1Nc2ccccc2C1=O [AGM028, 5′-chloro-7′-methyl-1H,1′H-[2,3′] biindolylidene-3,2′-dione] | > 100 µM |  | > 100 µM | > 100 µM | 8.85 ± 2.20% | > 100 µM | > 100 µM | 35.22 ± 0.55% | 55.57 ± 1.11% | 0.70 ± 0.16% | 
Nc1ccc2c(c1)C(=C1Nc3ccccc3C1=O)C(=O)N2 [AGM029, 5′-amino-1H,1′H-[2,3′] biindolylidene-3,2′-dione] | 5.41 µM | effective inhibitor | 21.1 µM | 33.2 µM | 45.05 ± 0.59% | 31.2 µM | 59.3 µM | 79.03 ± 0.55% | 78.81 ± 0.77% |  | induction of differentiation ([6]; at 20 μM concentration): excellently induces the differentiation
CC(C)(C)C(=O)Nc1ccc2c(c1)C(=C1Nc3ccccc3C1=NO)C(=O)N2 [AGM030, 5-NH-trimethylacetyl-indirubin-3-oxime] |  |  |  |  |  |  |  |  |  |  | size and volume of tumor (RK3E-ras solid tumor [2]): decrease; cell viability according to increase of compound concentration (RK3E-Ras cells [3]): rapid decline of cell viability; histological appearance of tumor lesion (RK3E-ras solid tumor [9]): necrosis or calcification of tumor is observed; annexin-V green fluorescence staining versus control (RK3E-Ras cells [10]): far more stained by green fluorescence than cells of control group
